From ChEMBL document CHEMBL1149486, “Carbonic anhydrase inhibitors: Hypoxia-activatable sulfonamides incorporating disulfide bonds that target the tumor-associated isoform IX” (J Med Chem, 2006)

What follows are compounds tested against Carbonic anhydrase 9 (Homo sapiens, UniProt Q16790).

| Ki [nM] | Structure (SMILES) |
| --- | --- |
| 71 | NS(=O)(=O)c1ccc(CCNC(=O)CCSSCCC(=O)NCCc2ccc(S(N)(=O)=O)cc2)cc1 |
| 3.6 | NS(=O)(=O)c1nnc(NC(=O)CCS)s1 |
| 9.3 | Cn1nc(S(N)(=O)=O)s/c1=N/C(=O)CCSSCCC(=O)/N=c1/sc(S(N)(=O)=O)nn1C |
